Results as given in ChEMBL document CHEMBL3400031, “Histone H3 peptide based LSD1-selective inhibitors” (Bioorg Med Chem Lett, 2015).
Numbered stars: 1 amine (or outer) side, 2 acyl side, 3 side chain; on linkers, the order of the positions; unused ones are H or OH. Square brackets hold non-standard residues; d marks the D form. Peptide text beside a SMILES is read from it. X1 = O=C([C@H](CCCCNC1CC1c1ccccc1)N[*:1])[*:2]

Tests used:
[1] = molecular target: T1, Amine oxidase [flavin-containing] A (Homo sapiens, UniProt P21397); test: Inhibition of human MAOA using (4S)-4,5-dihydro-2-(6-hydroxybenzothiazolyl)-4-thiazolecarboxylic acid substrate incubated for 60 mins by luciferin detection based chemiluminescence assay
T1 sequence (P21397 whole entry): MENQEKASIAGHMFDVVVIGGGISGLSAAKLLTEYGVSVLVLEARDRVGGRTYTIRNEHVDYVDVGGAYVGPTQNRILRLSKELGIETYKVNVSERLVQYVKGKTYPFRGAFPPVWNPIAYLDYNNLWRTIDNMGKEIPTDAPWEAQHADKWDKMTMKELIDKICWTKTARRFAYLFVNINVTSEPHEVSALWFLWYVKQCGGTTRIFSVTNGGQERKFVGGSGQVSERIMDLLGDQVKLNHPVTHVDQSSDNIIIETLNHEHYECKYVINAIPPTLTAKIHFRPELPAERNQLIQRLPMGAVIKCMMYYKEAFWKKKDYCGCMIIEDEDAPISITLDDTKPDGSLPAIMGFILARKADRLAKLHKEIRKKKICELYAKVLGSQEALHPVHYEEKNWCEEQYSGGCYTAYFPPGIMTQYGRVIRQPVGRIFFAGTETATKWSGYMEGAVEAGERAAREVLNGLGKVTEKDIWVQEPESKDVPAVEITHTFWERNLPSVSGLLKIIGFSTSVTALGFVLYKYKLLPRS

[2] = molecular target: T2, Amine oxidase [flavin-containing] B (Homo sapiens, UniProt P27338); test: Inhibition of human MAOB using (4S)-4,5-dihydro-2-(6-hydroxybenzothiazolyl)-4-thiazolecarboxylic acid substrate incubated for 60 mins by luciferin detection based chemiluminescence assay
T2 sequence (P27338 whole entry): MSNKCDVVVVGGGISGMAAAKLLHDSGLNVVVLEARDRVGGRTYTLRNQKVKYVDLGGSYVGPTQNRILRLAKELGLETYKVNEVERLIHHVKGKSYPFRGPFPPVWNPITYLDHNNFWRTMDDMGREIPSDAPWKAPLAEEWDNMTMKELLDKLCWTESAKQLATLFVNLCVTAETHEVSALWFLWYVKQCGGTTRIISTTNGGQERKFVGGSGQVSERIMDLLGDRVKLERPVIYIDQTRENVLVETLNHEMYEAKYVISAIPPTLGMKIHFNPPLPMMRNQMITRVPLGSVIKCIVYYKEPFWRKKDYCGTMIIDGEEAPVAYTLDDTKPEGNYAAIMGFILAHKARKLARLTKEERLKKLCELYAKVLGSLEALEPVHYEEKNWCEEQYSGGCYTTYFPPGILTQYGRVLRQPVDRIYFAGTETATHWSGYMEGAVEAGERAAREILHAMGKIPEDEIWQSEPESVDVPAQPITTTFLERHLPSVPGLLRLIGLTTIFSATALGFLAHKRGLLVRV

[3] = molecular target: Lysine-specific histone demethylase 1A (Homo sapiens, UniProt O60341); test: Inhibition of human recombinant LSD1 assessed as effect on H2O2 production incubated for 30 mins using methylated peptide substrate, Amplex red reagent and peroxidase by fluorimetry

Row | Structure (SMILES) | IC50 [1] | IC50 [2] | IC50 [3]
1 | C[C@H](N)C(=O)N[C@@H](CCCNC(=N)N)C(=O)N[C@H](C(=O)N[C@@H](CCCCNC1CC1c1ccccc1)C(=O)N[C@@H](CCC(N)=O)C(=O)N[C@H](C(=O)N[C@@H](C)C(=O)N[C@@H](CCCNC(=N)N)C(=O)N[C@@H](CCCCN)C(=O)N[C@@H](CO)C(=O)N[C@H](C(=O)NCC(=O)NCC(=O)O)[C@@H](C)O)[C@@H](C)O)[C@@H](C)O (some centres undefined) | > 100 µM | > 100 µM | 
2 | C[C@H](N)C(=O)N[C@@H](CCCNC(=N)N)C(=O)N[C@H](C(=O)N[C@@H](CCCCNC1CC1c1ccccc1)C(=O)N[C@@H](CCC(N)=O)C(=O)N[C@H](C(=O)N[C@@H](C)C(=O)N[C@@H](CCCNC(=N)N)C(=O)N[C@@H](CCCCN)C(=O)O)[C@@H](C)O)[C@@H](C)O (some centres undefined) | > 100 µM | > 100 µM | 
3 | C[C@H](N)C(=O)N[C@@H](CCCNC(=N)N)C(=O)N[C@H](C(=O)N[C@@H](CCCCNC1CC1c1ccccc1)C(=O)N[C@@H](CCC(N)=O)C(=O)O)[C@@H](C)O (some centres undefined) (H-ART[X1]Q-OH) | > 100 µM | > 100 µM | > 10 µM
4 | C[C@H](N)C(=O)N[C@@H](CCCNC(=N)N)C(=O)N[C@H](C(=O)N[C@@H](CCCCNC1CC1c1ccccc1)C(=O)N[C@@H](CCC(N)=O)C(=O)N[C@H](C(=O)N[C@@H](C)C(=O)N[C@@H](CCCNC(=N)N)C(=O)N[C@@H](CCCCN)C(=O)N[C@@H](CO)C(=O)N[C@H](C(=O)NCC(=O)NCC(=O)N[C@@H](CCCCN)C(=O)N[C@@H](C)C(=O)N1CCC[C@H]1C(=O)N[C@@H](CCCNC(=N)N)C(=O)O)[C@@H](C)O)[C@@H](C)O)[C@@H](C)O (some centres undefined) (H-ART[X1]QTARKSTGGKAPR-OH) | > 100 µM | > 100 µM | 
